Laboratory results taken from the OligoGym collection.
HELM strings list units from the 5' end as sugar, base in round brackets, then linkage (d deoxyribose, r ribose, m 2'-O-methyl, p phosphodiester). Strings are as the collection lists them, not checked against the first reports. ss, as = sense and antisense strand; [fl2r] = 2'-fluoro

Details: siRNA
Note: test system not given here.

Substance	target mRNA knockdown [%]
RNA1{r(G)p.r(A)p.r(U)p.r(U)p.r(C)p.m(C)p.r(A)p.r(A)p.r(A)p.r(C)p.r(C)p.r(C)p.r(C)p.r(A)p.r(C)p.m(U)p.r(A)p.r(U)p.r(C)p.r(T)p.r(T)}|RNA2{r(G)p.r(A)p.r(U)p.r(A)p.r(G)p.r(U)p.r(G)p.r(G)p.r(G)p.r(G)p.r(U)p.r(U)p.r(U)p.r(G)p.r(G)p.r(A)p.r(A)p.r(U)p.r(C)p.r(T)p.r(T)}$$$RNA1{StrandType:ss}|RNA2{StrandType:as}$	67
RNA1{r(G)p.r(A)p.r(U)p.r(U)p.r(C)p.r(C)p.r(A)p.r(A)p.r(A)p.r(C)p.r(C)p.r(C)p.r(C)p.r(A)p.r(C)p.m(U)p.r(A)p.r(U)p.r(C)p.r(T)p.r(T)}|RNA2{r(G)p.r(A)p.r(U)p.m(A)p.r(G)p.r(U)p.r(G)p.r(G)p.r(G)p.r(G)p.r(U)p.r(U)p.r(U)p.r(G)p.r(G)p.r(A)p.r(A)p.r(U)p.r(C)p.r(T)p.r(T)}$$$RNA1{StrandType:ss}|RNA2{StrandType:as}$	69
RNA1{r(G)p.r(C)p.[fl2r](U)p.r(A)p.r(C)p.r(C)p.r(G)p.[fl2r](C)p.r(A)p.r(A)p.r(C)p.[fl2r](C)p.r(A)p.r(C)p.r(G)p.r(A)p.r(G)p.r(C)p.r(U)p.r(T)p.r(T)}|RNA2{r(A)p.r(G)p.r(C)p.r(U)p.r(C)p.r(G)p.[fl2r](U)p.r(G)p.r(G)p.r(U)p.[fl2r](U)p.r(G)p.r(C)p.r(G)p.r(G)p.[fl2r](U)p.r(A)p.r(G)p.r(C)p.r(T)p.r(T)}$$$RNA1{StrandType:ss}|RNA2{StrandType:as}$	42
RNA1{r(G)p.r(C)p.[fl2r](U)p.r(A)p.r(C)p.r(C)p.r(G)p.r(C)p.r(A)p.r(A)p.r(C)p.r(C)p.r(A)p.r(C)p.r(G)p.r(A)p.r(G)p.r(C)p.r(U)p.r(T)p.r(T)}|RNA2{r(A)p.r(G)p.r(C)p.r(U)p.r(C)p.r(G)p.r(U)p.r(G)p.r(G)p.r(U)p.r(U)p.r(G)p.r(C)p.r(G)p.r(G)p.[fl2r](U)p.r(A)p.r(G)p.r(C)p.r(T)p.r(T)}$$$RNA1{StrandType:ss}|RNA2{StrandType:as}$	45
RNA1{r(G)p.r(C)p.[fl2r](U)p.r(G)p.[fl2r](U)p.r(A)p.r(A)p.r(C)p.r(C)p.r(U)p.r(C)p.r(G)p.r(G)p.r(A)p.r(G)p.r(A)p.r(G)p.r(U)p.r(U)p.r(T)p.r(T)}|RNA2{r(A)p.r(A)p.r(C)p.r(U)p.r(C)p.r(U)p.r(C)p.r(C)p.r(G)p.r(A)p.r(G)p.r(G)p.r(U)p.[fl2r](U)p.r(A)p.[fl2r](C)p.r(A)p.r(G)p.r(C)p.r(T)p.r(T)}$$$RNA1{StrandType:ss}|RNA2{StrandType:as}$	62
RNA1{r(G)p.r(C)p.[fl2r](U)p.r(G)p.r(A)p.r(A)p.r(C)p.[fl2r](U)p.r(A)p.r(G)p.r(U)p.r(C)p.r(G)p.r(A)p.r(A)p.r(A)p.r(G)p.r(A)p.r(A)p.r(T)p.r(T)}|RNA2{r(U)p.r(U)p.r(C)p.r(U)p.r(U)p.r(U)p.r(C)p.r(G)p.r(A)p.r(C)p.[fl2r](U)p.r(A)p.r(G)p.r(U)p.r(U)p.[fl2r](C)p.r(A)p.r(G)p.r(C)p.r(T)p.r(T)}$$$RNA1{StrandType:ss}|RNA2{StrandType:as}$	78
RNA1{r(G)p.r(C)p.m(U)p.r(G)p.r(A)p.r(G)p.r(G)p.r(A)p.r(A)p.r(A)p.r(G)p.r(G)p.m(G)p.r(A)p.m(C)p.r(A)p.r(U)p.r(C)p.r(U)p.r(T)p.r(T)}|RNA2{r(A)p.r(G)p.r(A)p.m(U)p.r(G)p.r(U)p.r(C)p.r(C)p.r(C)p.r(U)p.r(U)p.r(U)p.r(C)p.r(C)p.r(U)p.m(C)p.r(A)p.r(G)p.r(C)p.r(T)p.r(T)}$$$RNA1{StrandType:ss}|RNA2{StrandType:as}$	76
RNA1{r(G)p.r(C)p.r(A)p.r(A)p.r(C)p.r(U)p.r(C)p.r(A)p.r(U)p.r(G)p.r(G)p.r(U)p.r(U)p.r(C)p.r(A)p.r(U)p.r(G)p.r(C)p.r(U)p.r(T)p.r(T)}|RNA2{r(A)p.r(G)p.r(C)p.r(A)p.r(U)p.r(G)p.r(A)p.r(A)p.r(C)p.r(C)p.r(A)p.r(U)p.r(G)p.r(A)p.r(G)p.r(U)p.r(U)p.r(G)p.r(C)p.d(T)p.d(T)}$$$RNA1{StrandType:ss}|RNA2{StrandType:as}$	40
RNA1{r(G)p.r(C)p.r(A)p.r(A)p.r(G)p.r(U)p.r(G)p.r(G)p.r(C)p.r(A)p.r(A)p.r(G)p.r(A)p.r(G)p.r(G)p.r(A)p.r(U)p.m(U)p.r(A)p.r(T)p.r(T)}|RNA2{m(U)p.r(A)p.r(A)p.r(U)p.r(C)p.r(C)p.r(U)p.r(C)p.r(U)p.r(U)p.r(G)p.r(C)p.r(C)p.r(A)p.r(C)p.r(U)p.r(U)p.r(G)p.r(C)p.r(T)p.r(T)}$$$RNA1{StrandType:ss}|RNA2{StrandType:as}$	69
RNA1{r(G)p.r(C)p.r(A)p.r(G)p.r(C)p.r(A)p.r(C)p.r(G)p.r(A)p.r(C)p.r(U)p.r(U)p.r(C)p.r(U)p.r(U)p.r(C)p.r(A)p.r(A)p.r(G)p.r(T)p.r(T)}|RNA2{[fl2r](C)p.[fl2r](U)p.[fl2r](U)p.r(G)p.r(A)p.r(A)p.r(G)p.r(A)p.r(A)p.r(G)p.[fl2r](U)p.[fl2r](C)p.r(G)p.[fl2r](U)p.r(G)p.[fl2r](C)p.[fl2r](U)p.r(G)p.[fl2r](C)p.r(T)p.r(T)}$$$RNA1{StrandType:ss}|RNA2{StrandType:as}$	83
RNA1{r(G)p.r(C)p.r(A)p.r(G)p.r(C)p.r(A)p.r(C)p.r(G)p.r(A)p.r(C)p.r(U)p.r(U)p.r(C)p.r(U)p.r(U)p.r(C)p.r(A)p.r(A)p.r(G)p.r(T)p.r(T)}|RNA2{d(C)p.d(U)p.d(U)p.d(G)p.d(A)p.d(A)p.d(G)p.d(A)p.d(A)p.d(G)p.d(U)p.d(C)p.d(G)p.d(U)p.d(G)p.d(C)p.d(U)p.d(G)p.d(C)p.r(T)p.r(T)}$$$RNA1{StrandType:ss}|RNA2{StrandType:as}$	0
RNA1{r(G)p.r(C)p.r(A)p.r(G)p.r(C)p.r(A)p.r(C)p.r(G)p.r(A)p.r(C)p.r(U)p.r(U)p.r(C)p.r(U)p.r(U)p.r(C)p.r(A)p.r(A)p.r(G)p.r(T)p.r(T)}|RNA2{m(C)p.m(U)p.m(U)p.m(G)p.m(A)p.m(A)p.m(G)p.m(A)p.m(A)p.m(G)p.m(U)p.m(C)p.m(G)p.m(U)p.m(G)p.m(C)p.m(U)p.m(G)p.m(C)p.r(T)p.r(T)}$$$RNA1{StrandType:ss}|RNA2{StrandType:as}$	16
RNA1{r(G)p.r(C)p.r(A)p.r(G)p.r(C)p.r(A)p.r(C)p.r(G)p.r(A)p.r(C)p.r(U)p.r(U)p.r(C)p.r(U)p.r(U)p.r(C)p.r(A)p.r(A)p.r(G)p.r(U)p.r(U)}|RNA2{r(C)p.[fl2r](U)p.r(U)p.r(G)p.r(A)p.r(A)p.r(G)p.r(A)p.r(A)p.r(G)p.r(U)p.r(C)p.r(G)p.r(U)p.r(G)p.r(C)p.r(U)p.r(G)p.r(C)p.r(U)p.r(U)}$$$RNA1{StrandType:ss}|RNA2{StrandType:as}$	73.8
RNA1{r(G)p.r(C)p.r(A)p.r(G)p.r(C)p.r(A)p.r(C)p.r(G)p.r(A)p.r(C)p.r(U)p.r(U)p.r(C)p.r(U)p.r(U)p.r(C)p.r(A)p.r(A)p.r(G)p.r(U)p.r(U)}|RNA2{r(C)p.m(U)p.r(U)p.r(G)p.r(A)p.r(A)p.r(G)p.r(A)p.r(A)p.r(G)p.r(U)p.r(C)p.r(G)p.r(U)p.r(G)p.r(C)p.r(U)p.r(G)p.r(C)p.r(U)p.r(U)}$$$RNA1{StrandType:ss}|RNA2{StrandType:as}$	71.7
